Laboratory results from paper PMC10935334, “Chemotherapeutic Activities of New η^6-p-Cymene Ruthenium(II) and Osmium(II) Complexes with Chelating SS and Tridentate SNS Ligands” (Molecules, 2024).

How the values were obtained:
[1] = system: human embryonic kidney (HEK293) cell line; assay: MTT cell viability (cytotoxicity) assay in HEK293 cells; format: cell-based; settings: 48 h incubation, non-tumor HEK293 cells, concentration needed to cause 50% net cell mortality
From the text: The cytotoxicity of the arene-Ru and arene-Os complexes was investigated against HeLa and Hek293 cells. The former cell is a cervical cancer line, while the latter is a non-tumor kidney cell line used to examine tumor selectivity. […] These findings imply that the higher stability of the chelating (SS) and the pincer (SNS) ligand architectures in the complexes improve the biological (anti-proliferative) activity by rendering ligand dissociation less likely to occur under physiological conditions. The pincer (SNS) osmium complexes were more cytotoxic than their ruthenium analogues. […] These allow for more efficient interactions with biological target molecules. Osmium typically forms coordinative bonds with more inert bonds than in the analogous lighter homolog, ruthenium. Due to their relative inertness and sufficient stability under physiological conditions, osmium complexes are considered exciting alternatives to ruthenium-based anti-cancer agents. However, there was no apparent general pattern in the reactivity of the two metal centers and the isostructural ligand. […]
(§1) The cytotoxicity of the compounds was examined in the HeLa and HEK293 cells using the MTT assay. […] Absorbance measurements were then taken at 570 nm using a Mindray MR-96A microplate reader (Vacutec, Hamburg, Germany).

[2] = system: cervical carcinoma (HeLa) cell line; assay: MTT cell viability (cytotoxicity) assay in HeLa cells; format: cell-based, human
From the text: The cytotoxicity of the arene-Ru and arene-Os complexes was investigated against HeLa and Hek293 cells. The former cell is a cervical cancer line, while the latter is a non-tumor kidney cell line used to examine tumor selectivity. […] Due to their relative inertness and sufficient stability under physiological conditions, osmium complexes are considered exciting alternatives to ruthenium-based anti-cancer agents.
Phosphate-buffered saline tablets (PBS), 3-(4,5-dimethylthiazol-2-yl)-2.5-diphenyltetrazolium bromide (MTT), and DMSO were obtained from Merck (Darmstadt, Germany). The human embryonic kidney (HEK293) and cervical carcinoma (HeLa) cell lines were sourced from the American Type Culture Collection (ATCC) (Manassas, VA, USA). […]
as §1

| SMILES | melting point | other results |
| --- | --- | --- |
| Cn1ccn(CCn2ccn(C)c2=S)c1=S | 195 to 197 °C |  |
| CCn1ccn(CCn2ccn(CC)c2=S)c1=S | 131 to 133 °C |  |
| CCCn1ccn(CCn2ccn(CCC)c2=S)c1=S | 91 to 92 °C |  |
| Cn1ccn(Cn2ccn(C)c2=S)c1=S | 194 to 197 °C |  |
| CCn1ccn(Cn2ccn(CC)c2=S)c1=S | 175 to 177 °C |  |
| Cn1ccn(Cc2cccc(Cn3ccn(C)c3=S)n2)c1=S | 190 to 193 °C |  |
| Cn1ccn(-c2cccc(-n3ccn(C)c3=S)n2)c1=S | 270 to 273 °C |  |
| CC(C)n1ccn(-c2cccc(-n3ccn(C(C)C)c3=S)n2)c1=S | 189 to 190 °C |  |
| O=c1[nH]cc(F)c(=O)[nH]1 [5-Fluorouracil, reference compound] |  | IC50 [1]: 180 ± 20 µM; Selectivity between tumor cells (HeLa) and normal cells (Hek293) ([2]; HeLa vs Hek293, MTT assay): selective toward the tumor cells; IC50 ([2]; Homo sapiens, MTT, 48 h incubation, HeLa cervical cancer cells, concentration needed to cause 50% net cell mortality): 87 ± 15 µM |
